Reference: publication PMC3095698 (Journal of molecular biology, 2011)

What was measured:
Type in all cases: biochemical
c-myc-PIP5K Iα = c-myc-PIP5K Iα (Homo sapiens, UniProt Q99755); experiment: activation of DP-PI; details: activator; 20 μM DP-PI(4)P, 50 μM PA, 50 μM ATP
3×HA-DGKα [1] = target: 3×HA-DGKα (Homo sapiens, UniProt P23743); experiment: […]-ATP phosphorylation in Triton X-100 mixed micelles, COS-7 lysate; details: 0.1 mM ATP, 5 mM MgCl2, pH 7.5, 25 °C; DOPS in micelles; surface mole percent
Chain of 3×HA-DGKα (Homo sapiens, UniProt P23743) (P23743 whole entry): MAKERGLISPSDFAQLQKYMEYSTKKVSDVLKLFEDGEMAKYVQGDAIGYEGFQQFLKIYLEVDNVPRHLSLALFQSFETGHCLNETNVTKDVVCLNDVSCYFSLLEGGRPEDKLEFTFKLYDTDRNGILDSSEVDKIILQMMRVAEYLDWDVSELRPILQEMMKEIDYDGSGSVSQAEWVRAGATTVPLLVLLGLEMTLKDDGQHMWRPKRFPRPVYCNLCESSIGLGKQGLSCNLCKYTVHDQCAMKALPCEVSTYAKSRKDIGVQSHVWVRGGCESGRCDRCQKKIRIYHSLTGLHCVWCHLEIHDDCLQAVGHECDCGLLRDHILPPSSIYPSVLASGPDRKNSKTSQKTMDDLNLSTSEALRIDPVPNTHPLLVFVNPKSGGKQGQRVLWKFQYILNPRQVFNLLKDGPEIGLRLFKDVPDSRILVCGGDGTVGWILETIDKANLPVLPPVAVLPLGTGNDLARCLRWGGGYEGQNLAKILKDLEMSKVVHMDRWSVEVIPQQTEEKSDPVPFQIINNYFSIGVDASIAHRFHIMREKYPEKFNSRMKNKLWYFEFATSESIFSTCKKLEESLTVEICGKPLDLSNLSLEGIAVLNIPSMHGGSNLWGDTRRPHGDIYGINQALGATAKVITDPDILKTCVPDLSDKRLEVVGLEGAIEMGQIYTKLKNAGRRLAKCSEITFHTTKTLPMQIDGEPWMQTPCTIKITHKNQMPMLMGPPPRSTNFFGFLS

3×HA-DGKα [2] = target: 3×HA-DGKα (Homo sapiens, UniProt P23743, V656L); experiment: as above; details: 0.1 mM ATP, 5 mM MgCl2, pH 7.5, 25 °C; DOPS in micelles; surface mole percent
Chain of 3×HA-DGKα (Homo sapiens, UniProt P23743, V656L) (P23743 whole entry V656L): as the sequence (P23743 whole entry) above, with V656L counted along it

Chain of c-myc-PIP5K Iα (Q99755 whole entry): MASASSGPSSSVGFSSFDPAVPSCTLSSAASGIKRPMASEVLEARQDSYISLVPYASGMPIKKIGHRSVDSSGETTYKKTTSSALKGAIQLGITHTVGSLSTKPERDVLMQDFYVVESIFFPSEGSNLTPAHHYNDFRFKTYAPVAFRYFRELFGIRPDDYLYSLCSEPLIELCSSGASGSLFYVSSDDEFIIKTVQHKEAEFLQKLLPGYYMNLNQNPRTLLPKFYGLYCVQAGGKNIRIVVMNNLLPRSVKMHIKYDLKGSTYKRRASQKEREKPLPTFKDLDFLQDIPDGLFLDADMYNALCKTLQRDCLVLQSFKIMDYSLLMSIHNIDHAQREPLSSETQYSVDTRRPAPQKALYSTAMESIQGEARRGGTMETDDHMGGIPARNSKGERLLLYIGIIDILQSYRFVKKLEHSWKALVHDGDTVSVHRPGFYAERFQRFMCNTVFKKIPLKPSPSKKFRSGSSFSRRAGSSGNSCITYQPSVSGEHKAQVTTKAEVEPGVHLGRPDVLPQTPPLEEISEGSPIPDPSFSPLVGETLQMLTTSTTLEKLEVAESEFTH

Structure (SMILES) | fold activation (c-myc-PIP5K Iα) | Km, mol% (3×HA-DGKα [1]) | Km, mol% (3×HA-DGKα [2])
CCCCC/C=C\C/C=C\C/C=C\C/C=C\CCCC(=O)OC[C@H](COP(=O)(O)O)OC(=O)CCC/C=C\C/C=C\C/C=C\C/C=C\CCCCC [DAPA, 1,2-Diarachidonoyl phosphatidic acid] | 12 fold | – | –
CCCCC/C=C\C/C=C\C/C=C\C/C=C\CCCC(=O)O[C@@H](CO)COC(=O)CCCCCCCCCCCCCCCCC [SAG, 1-Stearoyl-2-arachidonoyl-sn-glycerol] | – | 2.1 ± 0.4 mol% | 1.8 ± 0.3 mol%
CCCCC/C=C\C/C=C\CCCCCCCC(=O)O[C@@H](CO)COC(=O)CCCCCCCCCCCCCCCCC [SLG, 1-Stearoyl-2-linoleoyl-sn-glycerol] | – | 2.8 ± 0.3 mol% | 1.5 ± 0.4 mol%
